Reference: US9771369B2, “Compounds and methods for kinase modulation, and indications therefor” (Plexxikon Inc., priority 2014, dated 2017)

How the values were obtained:
c-kit mutant D816V = c-kit mutant D816V (Homo sapiens (Human), UniProt P10721, D816V/DEL694-753); assay: c-Kit mutant D816V biochemical assay (AlphaScreen kinase activity)
Description: The c-kit mutant D816V (or kinase domain thereof) is an active kinase in AlphaScreen. IC50 values are determined with respect to inhibition of c-Kit mutant D816V kinase activity, where inhibition of phosphorylation of a peptide substrate is measured as a function of compound concentration. Compounds to be tested were dissolved in DMSO to a concentration of 30 mM. These were diluted […] of DMSO (4 mM) and 1 μl was added to an assay plate. These were then serially diluted 1:3 (50 μl to […] DMSO) for a total of 8 points. Plates were prepared such that each kinase reaction is […] in 1× kinase buffer (25 mM HEPES, pH 7.2, 8 mM MgCl2, 2 mM MnCl2, 50 mM NaCl, 0.01% Brij, 1 mM DTT, 0.01% BSA), 5% DMSO and 10 μM ATP. Substrate was 30 nM biotin-(E4Y)10 (EMD Millipore, Cat#12-440). C-kit mutant D816V kinase was at 0.75 ng per sample. After incubation of the kinase reaction for 30 minutes at room temperature, 5 μl of donor beads (Streptavidin coated beads (Perkin Elmer Life Science) final concentration 7.5 μg/ml) in stop buffer (25 mM Hepes pH 7.5, 100 mM EDTA, 0.01% BSA) was added, the sample was mixed and incubated for 30 minutes at room temperature before adding […] of acceptor beads (PY30 coated beads (Perkin Elmer Life Science) final concentration 7.5 μg/ml) in stop buffer. The samples were incubated for 60 minutes at room temperature and the signal per well was read on EnVision reader. Phosphorylated substrate results in binding of the PY30 antibody and association of the donor and acceptor beads such that signal correlates with kinase activity. The signal vs. compound concentration was used to determine the IC50.
Recombinant c-kit mutant D816V (residues 551-934, kinase insertion domain residues 694-753 deleted) with a 6×-histidine N-terminal tag (SEQ ID NO: 3) was expressed in E. coli Arctic Express (DE3) RIL (Stratagene). Cells were grown in Terrific Broth (TB) media to an OD600 of 0.6 at 37° C. at which temperature was reduced to 10° C., protein was induced with 1.0 mM IPTG for 18 hours and harvested by centrifugation at 8000×g for 30 minutes. Cells were re-suspended in 0.1M KPO4 pH 8.0, 250 mM NaCl, 10% Glycerol, 0.75% NP-40, 25 mM Imidazole, 5 mM BME with 0.2 mg/ml Lysosyme, 2.0 mM PMSF, 25 μg/ml DNAse I, incubated in ice for 30 minutes and lyzed with a cell disruptor (MicroFluidics). The lysate was clarified by centrifugation at 30,000×g for 2 hours. The protein was captured with Talon resin (Clontech). Contaminating proteins were washed off with 25 mM Tris-HCl pH 8.3, 250 mM NaCl, 15% Glycerol, 1% Triton X-100, and protein eluted using 100 mM EDTA. The protein was further purified using Gel Filtration column 26/600 Superdex 300 (GE) in 50 mM Tris-HCl , pH 8.0, 250 mM NaCl, 15% Glycerol, 5 mM BME. The protein was aliquoted and flash-frozen in liquid Nitrogen.

[1] = tested on: BaF3-FL KIT D816V or BaF3-FL KIT V560G/D816V cell line; assay: Cell-based assays of c-Kit mutant kinase activity (cell proliferation, ATPlite); conditions: at least one of the c-kit cell assays of Example 7
Description: The c-Kit mutant D816V inhibitors were assessed using an engineered BaF3-FL KIT D816V or BaF3-FL KIT V560G/D816V cell line. The BaF3-FL KIT D816V cell lines were created by introduction of KIT mutant (D816V) full length constructs that render the cells dependent on the introduced kinase for growth. Inhibitors of c-Kit mutant D816V kinase reduce or eliminate the mediated c-kit mutant D816V kinase activation, resulting in reduced cell proliferation of the BaF3-FL Kit mutant D816V cells. This inhibition is measured by the effect of compound concentration on cell growth to assess IC50 values. BaF3-FL KIT D816V cells were seeded at 1×10^4 cells per well of a 96 well cell culture plate in 50 μl of cell culture medium of RPMI Medium 1× (Invitrogen #11875-093) supplemented with 10% FBS (Invitrogen #10438), 1% Non Essential Amino Acids (Invitrogen #11140), 1% Penicillin Streptomycin (Invitrogen #15140), 1% L-Glutamine (Invitrogen #25030-081). Compounds were dissolved in DMSO at a concentration of 5 mM and were serially diluted 1:3 for a total of eight points and added to the cells to a final maximum concentration of 10 μM in 100 μl cell culture medium (final concentration 0.2% DMSO). Cells were also treated with Dasatinib as a positive control. The cells were incubated at 37° C., 5% CO2 for three days. ATPlite Buffer (Perkin Elmer #6016739) and substrate were equilibrated to room temperature, and enzyme/substrate Recombinant Firefly Luciferase/D-Luciferin was reconstituted. The cell plates were equilibrated to room temperature for 30 minutes, then lysed by addition of 25 μL per well of the ATPlite Reagent. The plate was mixed for 5 minutes on a plate shaker to lyse the cells. The plates were read on a Tecan Safire using Luminescence protocol modified to read 0.1s per well. The luminescence reading assesses the ATP content, which correlates directly with cell number such that the reading as a function of compound concentration is used to determine the IC50 value.
Plasmids P75635 and P75565 were engineered for mammalian cell expression. In both plasmids, full-length human v-kit Hardy-Zuckerman 4 feline sarcoma viral oncogene homolog gene (NCBI accession NM_000222, KIT, residues M1-V976) was subcloned into the pCI-Neo vector (Promega E1841). Plasmid P75635 contains the mutation of residue Aspartic acid 816 to Valine. Plasmid P75565 contains the double mutation of residues Valine 560 to Glycine and Aspartic acid 816 to Valine. The pCI-neo Mammalian Expression Vector carries the human cytomegalovirus (CMV) immediate-early enhancer/promoter region to promote constitutive expression of KIT and contains the neomycin phosphotransferase gene, a selectable marker.
It is understood that the results of these assays may vary as assay conditions are varied. Inhibition levels determined under the conditions described herein represent a relative activity for the compounds tested under the specific conditions employed. The cell based assays are likely to show variability due to the complexity of the system and the sensitivity thereof to any changes in the assay conditions. […] In some instances, the compounds were not tested in all of the assays, or assay results were not valid.

Sequence of c-kit mutant D816V (P10721 other isoform, or with tags, fused parts or gaps D816V/del 694-753): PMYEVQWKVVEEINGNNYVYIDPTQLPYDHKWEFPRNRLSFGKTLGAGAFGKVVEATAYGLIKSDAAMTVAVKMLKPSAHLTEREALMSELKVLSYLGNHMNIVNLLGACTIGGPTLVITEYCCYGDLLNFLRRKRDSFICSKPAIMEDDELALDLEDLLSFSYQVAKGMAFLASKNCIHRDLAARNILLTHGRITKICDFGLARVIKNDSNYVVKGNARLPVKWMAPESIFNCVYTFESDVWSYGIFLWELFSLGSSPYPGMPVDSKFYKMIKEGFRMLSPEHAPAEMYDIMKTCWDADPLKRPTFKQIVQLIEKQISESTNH

In the case of COc1cc(-c2cc3c(N4CCC(c5nc(C)c(-c6ccc(F)cc6)[nH]5)CC4)ncnc3[nH]2)ccn1 [P-3007, 4-[4-[5-(4-fluorophenyl)-4-methyl-1H-imidazol-2-yl]-1-piperidyl]-6-(2-methoxy-4-pyridyl)-7H-pyrrolo[2,3-d]pyrimidine], the IC50 (c-kit mutant D816V) is reported as 0.0001 to 1 µM and the IC50 [1] is reported as under 10000 nM.
In the case of COc1cc(-c2cc3c(N4CCC(c5nc(C6CC6)c(-c6ccccc6)[nH]5)CC4)ncnc3[nH]2)ccn1 [P-3008, 4-[4-(4-cyclopropyl-5-phenyl-1H-imidazol-2-yl)-1-piperidyl]-6-(2-methoxy-4-pyridyl)-7H-pyrrolo[2,3-d]pyrimidine], the IC50 (c-kit mutant D816V) is reported as 0.0001 to 1 µM and the IC50 [1] is reported as under 10000 nM.
Fc1ccc(-c2cc3c(N4CCC(c5nc(C6CC6)c(-c6ccccc6)[nH]5)CC4)ncnc3[nH]2)cc1 [P-3009, 4-[4-(4-cyclopropyl-5-phenyl-1H-imidazol-2-yl)-1-piperidyl]-6-(4-fluorophenyl)-7H-pyrrolo[2,3-d]pyrimidine] was tested, and the IC50 (c-kit mutant D816V) was 0.0001 to 1 µM and the IC50 [1] was under 10000 nM.
Work on N#Cc1ccc(-c2cc3c(N4CCC(c5nc(C6CC6)c(-c6ccccc6)[nH]5)CC4)ncnc3[nH]2)cc1 [P-3010, 4-[4-[4-(4-cyclopropyl-5-phenyl-1H-imidazol-2-yl)-1-piperidyl]-7H-pyrrolo[2,3-d]pyrimidin-6-yl]benzonitrile] yielded an IC50 (c-kit mutant D816V) of 0.0001 to 1 µM and an IC50 [1] of under 10000 nM.
Work on Cc1nc(C2CCN(c3ncnc4[nH]c(-c5ccc(F)cc5)cc34)CC2)[nH]c1-c1cccc(OC(F)(F)F)c1 [P-3011, 6-(4-fluorophenyl)-4-[4-[4-methyl-5-[3-(trifluoromethoxy)phenyl]-1H-imidazol-2-yl]-1-piperidyl]-7H-pyrrolo[2,3-d]pyrimidine] yielded an IC50 (c-kit mutant D816V) of 0.0001 to 1 µM and an IC50 [1] of under 10000 nM.
For CCOc1cc(-c2[nH]c(C3CCN(c4ncnc5[nH]c(-c6ccc(C#N)cc6)cc45)CC3)nc2C)ccc1C [P-3095, 4-[4-[4-[5-(3-ethoxy-4-methyl-phenyl)-4-methyl-1H-imidazol-2-yl]-1-piperidyl]-7H-pyrrolo[2,3-d]pyrimidin-6-yl]benzonitrile], the IC50 (c-kit mutant D816V) was 0.0001 to 1 µM and the IC50 [1] was under 10000 nM.
Work on CCOc1cc(-c2[nH]c(C3CCN(c4ncnc5[nH]c(-c6ccnc(OC)c6)cc45)CC3)nc2C)ccc1C [P-3096, 4-[4-[5-(3-ethoxy-4-methyl-phenyl)-4-methyl-1H-imidazol-2-yl]-1-piperidyl]-6-(2-methoxy-4-pyridyl)-7H-pyrrolo[2,3-d]pyrimidine] yielded an IC50 (c-kit mutant D816V) of 0.0001 to 1 µM and an IC50 [1] of under 10000 nM.
In the case of Cc1nc(C2CCN(c3ncnc4[nH]c(-c5ccnc(C(F)(F)F)c5)cc34)CC2)[nH]c1-c1ccccc1 [P-3097, 4-[4-(4-methyl-5-phenyl-1H-imidazol-2-yl)-1-piperidyl]-6-[2-(trifluoromethyl)-4-pyridyl]-7H-pyrrolo[2,3-d]pyrimidine], the IC50 (c-kit mutant D816V) is reported as 0.0001 to 1 µM and the IC50 [1] is reported as under 10000 nM.
For Cc1nc(C2CCN(c3ncnc4[nH]c(-c5cccc(C(F)(F)F)c5)cc34)CC2)[nH]c1-c1ccccc1 [P-3098, 4-[4-(4-methyl-5-phenyl-1H-imidazol-2-yl)-1-piperidyl]-6-[3-(trifluoromethyl)phenyl]-7H-pyrrolo[2,3-d]pyrimidine], the IC50 (c-kit mutant D816V) was 0.0001 to 1 µM and the IC50 [1] was under 10000 nM.
For CCOc1ccc(-c2[nH]c(C3(C)CCN(c4ncnc5[nH]c(C)cc45)CC3)nc2C)cc1C [P-3099, 4-[4-[5-(4-ethoxy-3-methyl-phenyl)-4-methyl-1H-imidazol-2-yl]-4-methyl-1-piperidyl]-6-methyl-7H-pyrrolo[2,3-d]pyrimidine], the IC50 (c-kit mutant D816V) was 0.0001 to 1 µM and the IC50 [1] was under 10000 nM.
For CCc1ccc(-c2[nH]c(C3(C)CCN(c4ncnc5[nH]c(C)cc45)CC3)nc2C)cc1 [P-3101, 4-[4-[5-(4-ethylphenyl)-4-methyl-1H-imidazol-2-yl]-4-methyl-1-piperidyl]-6-methyl-7H-pyrrolo[2,3-d]pyrimidine], the IC50 (c-kit mutant D816V) was 0.0001 to 1 µM and the IC50 [1] was under 10000 nM.
Molecule COc1ccc(-c2[nH]c(C3(C)CCN(c4ncnc5[nH]c(C)cc45)CC3)nc2C)cc1C [P-3102, 4-[4-[5-(4-methoxy-3-methyl-phenyl)-4-methyl-1H-imidazol-2-yl]-4-methyl-1-piperidyl]-6-methyl-7H-pyrrolo[2,3-d]pyrimidine] has an IC50 (c-kit mutant D816V) of 0.0001 to 1 µM and an IC50 [1] of under 10000 nM.
With COc1cc(-c2cc3c(N4CCC(c5nc(C)c(-c6ccc(C)c(OC)c6)[nH]5)CC4)ncnc3[nH]2)ccn1 [P-3104, 4-[4-[5-(3-methoxy-4-methyl-phenyl)-4-methyl-1H-imidazol-2-yl]-1-piperidyl]-6-(2-methoxy-4-pyridyl)-7H-pyrrolo[2,3-d]pyrimidine] the IC50 (c-kit mutant D816V) was 0.0001 to 1 µM and the IC50 [1] was under 10000 nM.
COc1cc(-c2[nH]c(C3(C)CCN(c4ncnc5[nH]c(C)cc45)CC3)nc2C)ccc1C [P-3105, 4-[4-[5-(3-methoxy-4-methyl-phenyl)-4-methyl-1H-imidazol-2-yl]-4-methyl-1-piperidyl]-6-methyl-7H-pyrrolo[2,3-d]pyrimidine] gave an IC50 (c-kit mutant D816V) of 0.0001 to 1 µM and an IC50 [1] of under 10000 nM.
In the case of COc1cc(-c2[nH]c(C3CCN(c4ncnc5[nH]c(-c6ccc(C#N)cc6)cc45)CC3)nc2C)ccc1C [P-3106, 4-[4-[4-[5-(3-methoxy-4-methyl-phenyl)-4-methyl-1H-imidazol-2-yl]-1-piperidyl]-7H-pyrrolo[2,3-d]pyrimidin-6-yl]benzonitrile], the IC50 (c-kit mutant D816V) is reported as 0.0001 to 1 µM and the IC50 [1] is reported as under 10000 nM.
Work on Cc1nc(C2CCN(c3ncnc4[nH]c(-c5cnn(C(F)F)c5)cc34)CC2)[nH]c1-c1ccc(F)cc1 [P-3107, 6-[1-(difluoromethyl)pyrazol-4-yl]-4-[4-[5-(4-fluorophenyl)-4-methyl-1H-imidazol-2-yl]-1-piperidyl]-7H-pyrrolo[2,3-d]pyrimidine] yielded an IC50 (c-kit mutant D816V) of 0.0001 to 1 µM and an IC50 [1] of under 10000 nM.
COc1ccc(-c2[nH]c(C3CCN(c4ncnc5[nH]c(-c6cnn(C(F)F)c6)cc45)CC3)nc2C)cc1 [P-3108, 6-[1-(difluoromethyl)pyrazol-4-yl]-4-[4-[5-(4-methoxyphenyl)-4-methyl-1H-imidazol-2-yl]-1-piperidyl]-7H-pyrrolo[2,3-d]pyrimidine] showed an IC50 (c-kit mutant D816V) of 0.0001 to 1 µM and an IC50 [1] of under 10000 nM.
